Test results reported in paper PMC12136031 (Science Advances, 2025).
Where two headings read alike, the source gives them in different places.

Columns and labels:
[1] = test system: GABAA; assay: Safety47 Ion Channel GABAA; format: cell-based; details: for IC50: read-out: RC50 (IC50); for EC50: read-out: RC50 (EC50)
[2] = molecular target: T1, PDE4D2 (Homo sapiens, UniProt Q08499); assay: Safety47 Enzymatic PDE4D2; format: biochemical; details: Inhibitor; for Emax: read-out: Max Response; for IC50: read-out: RC50 (IC50)
T1 construct: purchased Eurofins Panlab (Safety47 Safety Scan, contract panel)
T1 sequence (Q08499 303-809 limits assumed): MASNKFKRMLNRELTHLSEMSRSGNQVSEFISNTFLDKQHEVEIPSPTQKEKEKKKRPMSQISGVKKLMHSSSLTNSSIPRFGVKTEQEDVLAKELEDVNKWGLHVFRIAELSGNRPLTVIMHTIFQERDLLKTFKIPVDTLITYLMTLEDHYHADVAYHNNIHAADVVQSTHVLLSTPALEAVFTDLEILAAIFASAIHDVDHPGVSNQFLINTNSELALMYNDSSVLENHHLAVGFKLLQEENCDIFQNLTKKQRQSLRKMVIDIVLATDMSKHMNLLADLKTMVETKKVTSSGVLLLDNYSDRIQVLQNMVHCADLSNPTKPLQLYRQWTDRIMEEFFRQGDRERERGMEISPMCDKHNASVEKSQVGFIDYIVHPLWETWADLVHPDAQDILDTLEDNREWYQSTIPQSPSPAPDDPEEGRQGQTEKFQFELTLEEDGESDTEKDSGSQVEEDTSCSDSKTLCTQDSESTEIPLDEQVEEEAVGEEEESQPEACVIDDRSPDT

[3] = molecular target: T2, HTR2B (Homo sapiens, UniProt P41595); assay: Safety47 Calcium Flux HTR2B; format: cell-based; details: for Emax: read-out: Max Response; for EC50: read-out: RC50 (EC50); for IC50: read-out: RC50 (IC50)
T2 construct: purchased Eurofins Panlab Safety47 Safety Scan
T2 sequence (P41595 whole entry): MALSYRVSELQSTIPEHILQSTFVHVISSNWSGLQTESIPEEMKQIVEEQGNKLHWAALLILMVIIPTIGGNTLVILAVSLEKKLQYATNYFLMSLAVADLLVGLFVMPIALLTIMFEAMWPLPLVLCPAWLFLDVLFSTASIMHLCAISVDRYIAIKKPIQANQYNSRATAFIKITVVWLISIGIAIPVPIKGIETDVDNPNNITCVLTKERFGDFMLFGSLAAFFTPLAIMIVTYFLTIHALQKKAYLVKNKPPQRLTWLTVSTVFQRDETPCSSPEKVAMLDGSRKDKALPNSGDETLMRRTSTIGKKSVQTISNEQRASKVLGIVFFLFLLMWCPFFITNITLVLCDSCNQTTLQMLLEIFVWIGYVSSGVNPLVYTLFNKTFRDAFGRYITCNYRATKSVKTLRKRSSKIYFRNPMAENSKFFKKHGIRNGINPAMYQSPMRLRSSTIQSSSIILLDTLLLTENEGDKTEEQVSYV

[4] = molecular target: T3, HRH2 (Homo sapiens, UniProt P25021); assay: Safety47 cAMP HRH2; format: cell-based; details: for Emax: read-out: Max Response; for EC50: read-out: RC50 (EC50); for IC50: read-out: RC50 (IC50)
T3 construct: purchased Eurofins Panlab Safety47 Safety Scan
T3 sequence (P25021 whole entry): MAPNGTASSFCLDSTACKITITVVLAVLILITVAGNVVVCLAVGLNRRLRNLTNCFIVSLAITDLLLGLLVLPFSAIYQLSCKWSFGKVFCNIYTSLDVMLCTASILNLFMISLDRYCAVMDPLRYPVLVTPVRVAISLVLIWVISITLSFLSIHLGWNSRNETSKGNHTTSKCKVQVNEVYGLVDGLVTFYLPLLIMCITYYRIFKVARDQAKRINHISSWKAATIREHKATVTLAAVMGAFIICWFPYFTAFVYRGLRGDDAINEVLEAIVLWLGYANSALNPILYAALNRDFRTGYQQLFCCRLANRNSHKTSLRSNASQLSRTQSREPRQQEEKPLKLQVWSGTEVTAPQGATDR

[5] = molecular target: T4, HTR1B (Homo sapiens, UniProt P28222); assay: Safety47 cAMP HTR1B; format: cell-based; details: for Emax: read-out: Max Response; for EC50: read-out: RC50 (EC50); for IC50: read-out: RC50 (IC50)
T4 construct: purchased Eurofins Panlab (Safety47 Safety Scan, contract panel)
T4 sequence (P28222 whole entry, species assumed): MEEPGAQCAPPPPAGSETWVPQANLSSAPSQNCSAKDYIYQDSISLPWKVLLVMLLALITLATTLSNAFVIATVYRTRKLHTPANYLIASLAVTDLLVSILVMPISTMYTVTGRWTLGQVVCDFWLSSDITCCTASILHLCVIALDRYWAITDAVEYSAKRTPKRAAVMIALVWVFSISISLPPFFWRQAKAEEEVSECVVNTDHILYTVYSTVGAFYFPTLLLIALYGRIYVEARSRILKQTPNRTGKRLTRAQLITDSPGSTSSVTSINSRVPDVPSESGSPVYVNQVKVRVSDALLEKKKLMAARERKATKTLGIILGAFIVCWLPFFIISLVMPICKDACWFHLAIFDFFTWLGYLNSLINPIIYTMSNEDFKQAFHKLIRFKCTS

[6] = molecular target: T5, HTR3A (Homo sapiens, UniProt P46098); assay: Safety47 Ion Channel HTR3A; format: cell-based; details: for Emax: read-out: Max Response; for IC50: read-out: RC50 (IC50); for EC50: read-out: RC50 (EC50)
T5 construct: purchased Eurofins Panlab (Safety47 Safety Scan, contract panel)
T5 sequence (P46098 24-478): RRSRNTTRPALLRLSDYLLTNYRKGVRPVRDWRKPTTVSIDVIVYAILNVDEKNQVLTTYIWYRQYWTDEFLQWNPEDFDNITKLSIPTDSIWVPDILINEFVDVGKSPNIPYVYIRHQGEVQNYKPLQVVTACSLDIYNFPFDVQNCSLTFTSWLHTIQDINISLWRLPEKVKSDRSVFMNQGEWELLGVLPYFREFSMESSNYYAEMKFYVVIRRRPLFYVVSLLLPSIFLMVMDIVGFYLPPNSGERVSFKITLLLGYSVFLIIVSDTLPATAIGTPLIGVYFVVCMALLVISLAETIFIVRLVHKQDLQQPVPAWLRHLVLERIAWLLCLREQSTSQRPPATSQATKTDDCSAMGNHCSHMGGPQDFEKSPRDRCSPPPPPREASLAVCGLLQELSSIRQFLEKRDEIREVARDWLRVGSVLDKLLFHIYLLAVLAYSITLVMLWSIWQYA

[7] = molecular target: T6, ADRB1 (Homo sapiens, UniProt P08588); assay: Safety47 cAMP ADRB1; format: cell-based; details: for Emax: read-out: Max Response; for EC50: read-out: RC50 (EC50); for IC50: read-out: RC50 (IC50)
T6 construct: purchased Eurofins Panlab Safety47 Safety Scan
T6 sequence (P08588 whole entry): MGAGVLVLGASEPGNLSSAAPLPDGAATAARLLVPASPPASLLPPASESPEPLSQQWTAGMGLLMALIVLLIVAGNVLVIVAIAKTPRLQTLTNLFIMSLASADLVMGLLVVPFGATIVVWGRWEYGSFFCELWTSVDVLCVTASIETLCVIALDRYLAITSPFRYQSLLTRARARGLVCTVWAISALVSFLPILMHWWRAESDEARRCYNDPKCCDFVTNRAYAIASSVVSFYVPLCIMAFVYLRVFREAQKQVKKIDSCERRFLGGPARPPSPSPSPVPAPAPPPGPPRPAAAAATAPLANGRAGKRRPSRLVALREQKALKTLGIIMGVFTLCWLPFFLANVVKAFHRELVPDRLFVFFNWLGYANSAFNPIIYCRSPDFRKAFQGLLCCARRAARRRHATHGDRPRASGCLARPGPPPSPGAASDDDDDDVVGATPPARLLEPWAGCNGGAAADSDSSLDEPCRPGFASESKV

[8] = molecular target: T7, ROCK1 (Homo sapiens, UniProt Q13464); assay: Safety47 Kinase Binding ROCK1; details: Kinases, Inhibitor; for Emax: read-out: Max Response; for IC50: read-out: RC50 (IC50)
T7 construct: purchased Eurofins Panlab (Safety47 Safety Scan, contract panel)
T7 sequence (Q13464 whole entry, species assumed): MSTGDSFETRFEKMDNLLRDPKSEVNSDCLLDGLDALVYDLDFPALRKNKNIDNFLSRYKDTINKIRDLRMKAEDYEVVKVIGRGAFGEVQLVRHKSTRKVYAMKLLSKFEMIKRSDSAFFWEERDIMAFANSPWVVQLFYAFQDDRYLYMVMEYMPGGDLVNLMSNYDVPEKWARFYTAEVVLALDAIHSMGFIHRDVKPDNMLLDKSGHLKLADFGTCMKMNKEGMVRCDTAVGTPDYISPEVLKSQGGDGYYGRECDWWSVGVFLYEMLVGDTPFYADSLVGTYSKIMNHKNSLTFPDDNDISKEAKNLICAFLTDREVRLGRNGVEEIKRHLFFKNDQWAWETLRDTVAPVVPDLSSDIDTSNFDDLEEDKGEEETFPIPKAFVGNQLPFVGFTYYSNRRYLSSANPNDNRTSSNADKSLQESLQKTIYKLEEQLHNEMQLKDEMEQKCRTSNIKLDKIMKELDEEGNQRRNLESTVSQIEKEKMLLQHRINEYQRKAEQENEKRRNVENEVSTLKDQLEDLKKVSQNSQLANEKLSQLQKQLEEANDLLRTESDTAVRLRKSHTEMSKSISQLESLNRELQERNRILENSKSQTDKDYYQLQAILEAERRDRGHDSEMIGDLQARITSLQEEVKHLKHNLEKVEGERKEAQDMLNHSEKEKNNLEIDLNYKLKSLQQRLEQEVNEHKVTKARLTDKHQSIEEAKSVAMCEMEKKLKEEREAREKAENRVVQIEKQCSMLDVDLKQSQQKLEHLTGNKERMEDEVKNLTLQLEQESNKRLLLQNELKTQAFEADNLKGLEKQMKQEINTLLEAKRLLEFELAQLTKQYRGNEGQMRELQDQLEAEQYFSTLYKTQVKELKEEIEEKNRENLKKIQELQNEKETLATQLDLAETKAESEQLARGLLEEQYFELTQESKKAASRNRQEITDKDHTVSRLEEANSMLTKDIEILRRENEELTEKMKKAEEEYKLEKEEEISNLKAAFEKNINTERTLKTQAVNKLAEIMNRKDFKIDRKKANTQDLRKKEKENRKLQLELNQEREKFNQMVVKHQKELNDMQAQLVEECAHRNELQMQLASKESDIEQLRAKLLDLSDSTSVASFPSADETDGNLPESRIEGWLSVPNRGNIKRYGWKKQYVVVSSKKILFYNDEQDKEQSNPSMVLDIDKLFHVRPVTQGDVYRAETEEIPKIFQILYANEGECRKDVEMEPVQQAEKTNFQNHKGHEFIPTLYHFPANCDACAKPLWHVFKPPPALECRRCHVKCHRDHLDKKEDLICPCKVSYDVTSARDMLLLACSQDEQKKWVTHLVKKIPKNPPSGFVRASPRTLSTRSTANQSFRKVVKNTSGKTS

[9] = molecular target: T8, COX1 (Homo sapiens, UniProt P23219); assay: Safety47 Enzymatic COX1; format: biochemical; details: Inhibitor; for Emax: read-out: Max Response; for IC50: read-out: RC50 (IC50)
T8 construct: purchased Eurofins Panlab (Safety47 Safety Scan, contract panel)

[10] = molecular target: T9, ADRA2A (Homo sapiens, UniProt P08913); assay: Safety47 cAMP ADRA2A; format: cell-based; details: for Emax: read-out: Max Response; for EC50: read-out: RC50 (EC50); for IC50: read-out: RC50 (IC50)
T9 construct: purchased Eurofins Panlab Safety47 Safety Scan
T9 sequence (P08913 1-465): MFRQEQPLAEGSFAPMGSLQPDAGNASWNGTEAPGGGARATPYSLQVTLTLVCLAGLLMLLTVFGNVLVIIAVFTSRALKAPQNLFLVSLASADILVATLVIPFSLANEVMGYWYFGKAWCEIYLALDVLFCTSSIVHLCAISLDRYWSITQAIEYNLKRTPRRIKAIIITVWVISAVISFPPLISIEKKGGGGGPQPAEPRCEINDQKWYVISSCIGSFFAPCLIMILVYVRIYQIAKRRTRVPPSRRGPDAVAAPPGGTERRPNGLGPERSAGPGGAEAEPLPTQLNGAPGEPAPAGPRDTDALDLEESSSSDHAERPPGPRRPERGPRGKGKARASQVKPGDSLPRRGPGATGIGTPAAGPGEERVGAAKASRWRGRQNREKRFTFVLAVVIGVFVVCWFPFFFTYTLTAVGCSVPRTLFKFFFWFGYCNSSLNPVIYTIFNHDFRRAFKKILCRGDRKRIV

[11] = molecular target: T10, CNR2 (Homo sapiens, UniProt P34972); assay: Safety47 cAMP CNR2; format: cell-based; details: for Emax: read-out: Max Response; for EC50: read-out: RC50 (EC50); for IC50: read-out: RC50 (IC50)
T10 construct: purchased Eurofins Panlab Safety47 Safety Scan
T10 sequence (P34972 whole entry): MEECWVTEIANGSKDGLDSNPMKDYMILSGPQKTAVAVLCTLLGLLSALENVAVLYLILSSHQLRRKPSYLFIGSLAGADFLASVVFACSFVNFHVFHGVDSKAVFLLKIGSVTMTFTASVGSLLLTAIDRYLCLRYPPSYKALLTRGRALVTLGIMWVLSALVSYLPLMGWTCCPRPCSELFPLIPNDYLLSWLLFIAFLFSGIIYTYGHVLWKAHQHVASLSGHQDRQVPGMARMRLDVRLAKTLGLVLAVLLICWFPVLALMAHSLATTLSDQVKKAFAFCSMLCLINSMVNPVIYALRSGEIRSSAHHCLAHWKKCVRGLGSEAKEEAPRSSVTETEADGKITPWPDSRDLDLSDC

[12] = molecular target: T11, DCAF7-TFEB interaction (Homo sapiens, UniProt P61962); assay: Proximity ligation assay of TFEB and DCAF7 in BEAS-2B cells; format: cell-based
T11 construct: endogenous in cells; host or cells: BEAS-2B

[13] = molecular target: T12, OPRK1 (Homo sapiens, UniProt P41145); assay: Safety47 cAMP OPRK1; format: cell-based; details: for Emax: read-out: Max Response; for EC50: read-out: RC50 (EC50); for IC50: read-out: RC50 (IC50)
T12 construct: purchased Eurofins Panlab (Safety47 Safety Scan, contract panel)
T12 sequence (P41145 whole entry, species assumed): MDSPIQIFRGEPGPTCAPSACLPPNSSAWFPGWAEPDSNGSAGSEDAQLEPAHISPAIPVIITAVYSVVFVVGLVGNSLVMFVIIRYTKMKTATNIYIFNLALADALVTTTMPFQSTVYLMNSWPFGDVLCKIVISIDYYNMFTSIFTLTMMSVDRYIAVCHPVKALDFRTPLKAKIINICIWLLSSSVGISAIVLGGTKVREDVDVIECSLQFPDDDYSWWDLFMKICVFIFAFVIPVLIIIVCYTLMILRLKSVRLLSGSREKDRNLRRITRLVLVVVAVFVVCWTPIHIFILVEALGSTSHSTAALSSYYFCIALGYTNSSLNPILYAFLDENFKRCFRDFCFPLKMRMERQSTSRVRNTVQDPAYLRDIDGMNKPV

[14] = molecular target: T13, CHRM1 (Homo sapiens, UniProt P11229); assay: Safety47 Calcium Flux CHRM1; format: cell-based; details: for Emax: read-out: Max Response; for EC50: read-out: RC50 (EC50); for IC50: read-out: RC50 (IC50)
T13 construct: purchased Eurofins Panlab Safety47 Safety Scan
T13 sequence (P11229 1-460): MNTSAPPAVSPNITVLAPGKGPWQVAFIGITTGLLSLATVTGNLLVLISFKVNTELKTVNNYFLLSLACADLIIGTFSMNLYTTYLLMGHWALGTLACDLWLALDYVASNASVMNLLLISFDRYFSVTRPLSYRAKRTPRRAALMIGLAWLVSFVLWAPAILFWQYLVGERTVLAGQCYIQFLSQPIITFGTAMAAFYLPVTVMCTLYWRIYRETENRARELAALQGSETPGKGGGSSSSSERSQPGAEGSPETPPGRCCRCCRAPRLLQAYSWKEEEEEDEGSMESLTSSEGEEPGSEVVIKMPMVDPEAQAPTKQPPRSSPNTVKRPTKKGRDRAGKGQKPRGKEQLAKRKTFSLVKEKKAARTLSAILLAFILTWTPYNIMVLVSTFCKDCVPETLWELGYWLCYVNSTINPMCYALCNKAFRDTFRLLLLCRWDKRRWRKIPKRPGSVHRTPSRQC

[15] = molecular target: T14, DRD2S (Homo sapiens, UniProt P14416); assay: Safety47 cAMP DRD2S; format: cell-based; details: for Emax: read-out: Max Response; for EC50: read-out: RC50 (EC50); for IC50: read-out: RC50 (IC50)
T14 construct: purchased Eurofins Panlab Safety47 Safety Scan
T14 sequence (P14416 1-414 isoform P14416-2): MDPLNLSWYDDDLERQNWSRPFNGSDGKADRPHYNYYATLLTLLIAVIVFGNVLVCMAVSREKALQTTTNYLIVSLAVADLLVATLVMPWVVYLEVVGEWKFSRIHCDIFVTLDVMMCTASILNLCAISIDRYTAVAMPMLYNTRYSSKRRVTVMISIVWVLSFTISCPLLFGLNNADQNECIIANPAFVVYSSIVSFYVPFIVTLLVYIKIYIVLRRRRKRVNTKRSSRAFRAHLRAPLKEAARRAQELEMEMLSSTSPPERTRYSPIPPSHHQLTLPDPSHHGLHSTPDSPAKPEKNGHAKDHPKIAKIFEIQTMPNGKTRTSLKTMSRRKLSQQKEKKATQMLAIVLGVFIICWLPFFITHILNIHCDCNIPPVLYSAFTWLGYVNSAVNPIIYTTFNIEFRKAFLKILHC

In the case of `Cl.c1ccc2c(Nc3ccc4[nH]ccc4c3)nc(-c3ccncc3)nc2c1` [BC18630, N-1H-indol-5-yl-2-pyridin-4-ylquinazolin-4-amine hydrochloride], the “Max Response” value ([1]; Blocker) is reported as 27.61, the IC50 ([1]; Blocker) is reported as over 10 µM and the “Max Response” value ([1]; Opener) is reported as 0.97. It also gave an EC50 ([1]; Opener) of over 10 µM, an Emax [2] of 52.3% and an IC50 [2] of over 10 µM. For the same compound, the Emax ([3]; Agonist) was 5.41%, the EC50 ([3]; Agonist) was over 10 µM and the Emax ([3]; Antagonist) was 9.48%. For the same compound, the IC50 ([3]; Antagonist) was over 10 µM, the Emax ([4]; Agonist) was 0% and the EC50 ([4]; Agonist) was over 10 µM. The “Curve Bottom” value ([4]; Antagonist) was -8.58, the “Curve Top” value ([4]; Antagonist) was 73.68 and the Hill ([4]; Antagonist) was 1. The Emax ([4]; Antagonist) was 43.2%, the IC50 ([4]; Antagonist) was 6.01 µM and the Emax ([5]; Agonist) was 12.5%. The EC50 ([5]; Agonist) was over 10 µM, the Emax ([5]; Antagonist) was 5.74% and the IC50 ([5]; Antagonist) was over 10 µM. For the same compound, the “Curve Bottom” value ([6]; Blocker) was 0, the “Curve Top” value ([6]; Blocker) was 100 and the Hill ([6]; Blocker) was 1.9. For the same compound, the Emax ([6]; Blocker) was 69.9%, the IC50 ([6]; Blocker) was 6.43 µM and the Emax ([6]; Opener) was 0%. The EC50 ([6]; Opener) was over 10 µM, the Emax ([7]; Agonist) was 0.54% and the EC50 ([7]; Agonist) was over 10 µM. For the same compound, the Emax ([7]; Antagonist) was 44.8%, the IC50 ([7]; Antagonist) was over 10 µM and the Emax [8] was 20.8%. The IC50 [8] was over 10 µM, the Emax [9] was 21.8% and the IC50 [9] was over 10 µM. For the same compound, the Emax ([10]; Agonist) was 0%, the EC50 ([10]; Agonist) was over 10 µM and the IC50 ([10]; Antagonist) was over 10 µM. The Emax ([11]; Agonist) was 27.8%, the EC50 ([11]; Agonist) was over 10 µM and the Emax ([11]; Antagonist) was 0%. The IC50 ([11]; Antagonist) was over 10 µM, the “Nuclear protein-protein interaction between DCAF7 and TFEB (PLA)” value [12] was “largely reduced” and the Emax ([13]; Agonist) was 8.98%. The EC50 ([13]; Agonist) was over 10 µM, the Emax ([13]; Antagonist) was 1% and the IC50 ([13]; Antagonist) was over 10 µM. For the same compound, the Emax ([14]; Agonist) was 0%, the EC50 ([14]; Agonist) was over 10 µM and the Emax ([14]; Antagonist) was 7.76%. For the same compound, the IC50 ([14]; Antagonist) was over 10 µM, the Emax ([15]; Agonist) was 0.87% and the EC50 ([15]; Agonist) was over 10 µM. The Emax ([15]; Antagonist) was 24.3% and the IC50 ([15]; Antagonist) was over 10 µM.
`Cl.Fc1cc(Nc2nc(-c3ccncc3)nc3ncccc23)cc2cc[nH]c12` [BC18813, N-(7-fluoro-1H-indol-5-yl)-2-pyridin-4-ylpyrido[2,3-d]pyrimidin-4-amine hydrochloride] was tested, and the “Max Response” value ([1]; Blocker) was 19.98, the IC50 ([1]; Blocker) was over 10 µM and the “Max Response” value ([1]; Opener) was 0.77. It also gave an EC50 ([1]; Opener) of over 10 µM, an Emax [2] of 44.4% and an IC50 [2] of over 10 µM. For the same compound, the Emax ([3]; Agonist) was 2.91%, the EC50 ([3]; Agonist) was over 10 µM and the Emax ([3]; Antagonist) was 31.3%. For the same compound, the IC50 ([3]; Antagonist) was over 10 µM, the Emax ([4]; Agonist) was 0% and the EC50 ([4]; Agonist) was over 10 µM. It also gave an Emax ([4]; Antagonist) of 45.8%, an IC50 ([4]; Antagonist) of over 10 µM and an Emax ([5]; Agonist) of 27.4%. It also gave an EC50 ([5]; Agonist) of over 10 µM, an Emax ([5]; Antagonist) of 0.13% and an IC50 ([5]; Antagonist) of over 10 µM. It also gave an Emax ([6]; Blocker) of 0%, an IC50 ([6]; Blocker) of over 10 µM and an Emax ([6]; Opener) of 0.03%. For the same compound, the EC50 ([6]; Opener) was over 10 µM, the Emax ([7]; Agonist) was 2.22% and the EC50 ([7]; Agonist) was over 10 µM. The Emax ([7]; Antagonist) was 42.9%, the IC50 ([7]; Antagonist) was over 10 µM and the Emax [8] was 22.8%. For the same compound, the IC50 [8] was over 10 µM, the Emax [9] was 29.3% and the IC50 [9] was over 10 µM. For the same compound, the Emax ([10]; Agonist) was 38.8%, the EC50 ([10]; Agonist) was over 10 µM and the Emax ([10]; Antagonist) was 0%. The IC50 ([10]; Antagonist) was over 10 µM, the “Curve Bottom” value ([11]; Agonist) was 0 and the “Curve Top” value ([11]; Agonist) was 100. It also gave a Hill ([11]; Agonist) of 1.05, an Emax ([11]; Agonist) of 63.6% and an EC50 ([11]; Agonist) of 4.59 µM. For the same compound, the Emax ([11]; Antagonist) was 0%, the IC50 ([11]; Antagonist) was over 10 µM and the “Nuclear protein-protein interaction between DCAF7 and TFEB (PLA)” value [12] was “largely reduced”. The Emax ([13]; Agonist) was 24.3%, the EC50 ([13]; Agonist) was over 10 µM and the Emax ([13]; Antagonist) was 0%. For the same compound, the IC50 ([13]; Antagonist) was over 10 µM, the Emax ([14]; Agonist) was 0% and the EC50 ([14]; Agonist) was over 10 µM. It also gave an Emax ([14]; Antagonist) of 15.3%, an IC50 ([14]; Antagonist) of over 10 µM and an Emax ([15]; Agonist) of 13.5%. The EC50 ([15]; Agonist) was over 10 µM, the Emax ([15]; Antagonist) was 5.93% and the IC50 ([15]; Antagonist) was over 10 µM.
